Results from ChEMBL document CHEMBL3352746, “Synthesis and anticancer activity of quinopimaric and maleopimaric acids’ derivatives” (Bioorg Med Chem, 2014).
Calls of active or inactive are those of the source. No cut-off for these calls is given here.

Legend:
Format in all cases: functional
[1] = (§1) Cytotoxicity against human NCI60 cells assessed as cell growth at 10 uM; conditions: read-out: Activity
[2] = system: SR; assay: Cytotoxicity against human SR cells assessed as cell growth at 10 uM; conditions: read-out: Activity
[3] = system: NCI60; assay: as §1
[4] = system: TK-10; assay: Cytotoxicity against human TK10 cells assessed as cell growth at 10 uM; conditions: read-out: Activity
[5] = Cytotoxicity against human HL60 cells assessed as cell growth at 10 uM; conditions: HL-60, read-out: Activity
[6] = system: T47D; assay: Cytotoxicity against human T47D cells assessed as cell growth at 10 uM; conditions: read-out: Activity
[7] = system: HCC 2998; assay: Cytotoxicity against human HCC2998 cells assessed as cell growth at 10 uM; conditions: read-out: Activity
[8] = system: RPMI-8226; assay: Cytotoxicity against human RPMI8226 cells assessed as cell growth at 10 uM; conditions: read-out: Activity

Compound	growth at 10 µM [1] [%]	other results
COC(=O)[C@]1(C)CCC[C@]2(C)[C@H]3C[C@H]4C(C(C)C)=C[C@]3(CC[C@H]21)[C@@H]1c2[nH]c3ccccc3c2CC(=O)[C@@H]14	> 32	–
COC(=O)[C@]1(C)CCC[C@@]2(C)[C@H]1CC[C@]13C=C(C(C)C)[C@H](C[C@H]21)C1=C3C(=O)C=CC1=O	–	growth at 10 µM [2]: 15.6%; Activity [3]: Active
CC(C)C1=C[C@@]23CC[C@@H]4[C@](C)(CCC[C@@]4(C)C(=O)O)[C@H]2C[C@@H]1[C@H]1C(=O)CCC(=O)[C@H]13	–	Activity [3]: Active; growth at 10 µM [4]: 28.4%
COC(=O)[C@]1(C)CCC[C@]2(C)[C@H]3C[C@H]4C(C(C)C)=C[C@]3(CC[C@H]21)[C@@H]1c2[nH]c3ccccc3c2-c2c([nH]c3ccccc23)[C@@H]14	> 32	–
COC(=O)[C@]1(C)CCC[C@]2(C)[C@H]3C[C@H]4C(C(C)C)=C[C@]3(CC[C@H]21)[C@@H]1NC(=O)CCC2(OCCO2)[C@@H]14	> 32	–
COC(=O)[C@]1(C)CCC[C@]2(C)[C@H]3C[C@H]4C(C(C)C)=C[C@]3(CC[C@H]21)[C@@H]1C(=O)[C@H]2O[C@H]2C(=O)[C@@H]14	–	growth at 10 µM [2]: 8.07%; Activity [3]: Active
COC(=O)[C@]1(C)CCC[C@]2(C)[C@H]3C[C@H]4C(C(C)C)=C[C@]3(CC[C@H]21)[C@@H]1/C(=N/O)CC[C@H](O)[C@@H]14	> 32	–
COC(=O)[C@]1(C)CCC[C@]2(C)[C@H]3C[C@H]4C(C(C)C)=C[C@]3(CC[C@H]21)[C@@H]1C(=O)CCC2(OCCO2)[C@@H]14	–	growth at 10 µM [2]: 31.2%; Activity [3]: Active; growth at 10 µM [5]: 28.7%
COC(=O)CCNC(=O)[C@]1(C)CCC[C@]2(C)[C@H]3C[C@H]4C(C(C)C)=C[C@]3(CC[C@H]21)[C@@H]1C(=O)CCC(=O)[C@@H]14	> 32	–
COC(=O)C(CCSC)NC(=O)[C@]1(C)CCC[C@]2(C)[C@H]3C[C@H]4C(C(C)C)=C[C@]3(CC[C@H]21)[C@@H]1C(=O)CC[C@H](OC(=O)CCC(=O)O)[C@@H]14 (stereo not given in full)	> 32	–
COC(=O)[C@]1(C)CCC[C@]2(C)[C@H]3C[C@@H]4[C@H]5[C@@H]6Cc7cn[nH]c7[C@H]5[C@@]3(CC[C@H]21)CC4(C(C)C)O6	> 32	–
COC(=O)[C@]1(C)CCC[C@]2(C)[C@H]3C[C@@H]4[C@H]5[C@@H]6Cc7[nH]c(=S)[nH]c7[C@H]5[C@@]3(CC[C@H]21)CC4(C(C)C)O6	> 32	–
COC(=O)[C@]1(C)CCC[C@]2(C)[C@H]3C[C@@H]4[C@H]5[C@@H]6CC/C(=N\O)[C@H]5[C@@]3(CC[C@H]21)CC4(C(C)C)O6	> 32	–
COC(=O)[C@]1(C)CCC[C@]2(C)[C@H]3C[C@H]4C(C(C)C)=C[C@]3(CC[C@H]21)[C@@H]1/C(=N/O)CCC2(OCCO2)[C@@H]14	–	Activity [3]: Active; growth at 10 µM [6]: 30.7%; growth at 10 µM [7]: -9.91%; growth at 10 µM [8]: 3.94%
COC(=O)[C@]1(C)CCC[C@]2(C)[C@H]3C[C@H]4C5C[C@]3(CC[C@H]21)[C@@H]1/C(=N/O)CC[C@H](OC5(C)C)[C@@H]14	> 32	–
COC(=O)[C@]1(C)CCC[C@]2(C)[C@H]3C[C@@H]4[C@H]5[C@@H]6CCC(=O)[C@H]5[C@@]3(CC[C@H]21)CC4(C(C)C)O6	> 32	–
CC(C)C1=C[C@]23CC[C@@H]4[C@](C)(CCC[C@@]4(C)C(=O)O)[C@H]2C[C@H]1[C@H]1C(=O)OC(=O)[C@H]13	> 32	–
COC(=O)[C@]1(C)CCC[C@]2(C)[C@H]3C[C@H]4C5C[C@]3(CC[C@H]21)[C@@H]1C(=O)CC[C@H](OC5(C)C)[C@@H]14	> 32	–
COC(=O)[C@]1(C)CCC[C@]2(C)[C@H]3C[C@@H]4[C@H]5[C@@H]6Cc7c([nH]c8ccccc78)[C@H]5[C@@]3(CC[C@H]21)CC4(C(C)C)O6	> 32	–
COC(=O)[C@]1(C)CCC[C@]2(C)[C@H]3C[C@@H]4[C@H]5[C@@H]6Cc7cnn(-c8ccccc8)c7[C@H]5[C@@]3(CC[C@H]21)CC4(C(C)C)O6	> 32	–
COC(=O)CCNC(=O)[C@]1(C)CCC[C@]2(C)[C@H]3C[C@H]4C(C(C)C)=C[C@]3(CC[C@H]21)[C@@H]1C(=O)CC[C@H](O)[C@@H]14	> 32	–
COC(=O)[C@]1(C)CCC[C@]2(C)[C@H]3C[C@H]4C(C(C)C)=C[C@]3(CC[C@H]21)[C@@H]1NC(=O)CC[C@H](O)[C@@H]14	> 32	–
